# Test results reported in publication PMC9564220, “Dipeptidyl peptidase-4 inhibitory potentials of Glycyrrhiza uralensis and its bioactive compounds licochalcone A and licochalcone B: An in silico and in vitro study” (Frontiers in Molecular Biosciences, 2022).
# Biological target: T1, Dipeptidyl peptidase-4 (DPP-4) (Homo sapiens, UniProt P27487)
# T1 construct: gene DPP4
# Test: fluorescence DPP-4 inhibitor screening kit (Sigma Aldrich), kinetic mode
# Assay type: biochemical
# T1 sequence (P27487 whole entry): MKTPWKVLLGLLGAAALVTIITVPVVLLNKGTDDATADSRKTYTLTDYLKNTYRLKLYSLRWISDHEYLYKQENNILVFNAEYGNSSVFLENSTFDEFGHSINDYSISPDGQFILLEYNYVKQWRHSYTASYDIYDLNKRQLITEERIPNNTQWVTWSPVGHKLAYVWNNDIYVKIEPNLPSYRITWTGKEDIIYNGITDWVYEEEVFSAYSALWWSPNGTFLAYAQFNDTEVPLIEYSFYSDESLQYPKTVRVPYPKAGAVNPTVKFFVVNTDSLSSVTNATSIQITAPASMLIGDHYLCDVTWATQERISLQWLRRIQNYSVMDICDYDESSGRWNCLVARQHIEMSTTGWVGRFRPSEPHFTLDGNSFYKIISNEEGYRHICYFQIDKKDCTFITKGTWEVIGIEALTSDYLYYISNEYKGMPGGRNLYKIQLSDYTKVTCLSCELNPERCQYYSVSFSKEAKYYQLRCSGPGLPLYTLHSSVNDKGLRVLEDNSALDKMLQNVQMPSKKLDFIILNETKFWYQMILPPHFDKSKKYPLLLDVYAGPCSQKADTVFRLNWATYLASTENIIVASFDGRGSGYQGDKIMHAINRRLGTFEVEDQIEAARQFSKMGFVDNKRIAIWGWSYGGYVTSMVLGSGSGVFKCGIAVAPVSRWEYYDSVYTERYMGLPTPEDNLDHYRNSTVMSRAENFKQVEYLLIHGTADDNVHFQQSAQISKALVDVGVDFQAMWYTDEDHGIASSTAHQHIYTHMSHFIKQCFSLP
row,Compound,IC50 [µM]
1,"C=CC(C)(C)c1cc(/C=C/C(=O)c2ccc(O)cc2)c(OC)cc1O [LicA, licochalcone A]",~348
2,"COc1c(/C=C/C(=O)c2ccc(O)cc2)ccc(O)c1O [LicB, licochalcone B]",~798
